Columns and labels:
TBK1 = TBK1 (Homo sapiens (Human), UniProt Q9UHD2); assay: TR-FRET enzymatic assay, phosphorylation of biotinylated serine/threonine peptide substrate (TBK1); details: read-out: TBK1-IC50; full length recombinant TBK1, 2×Km ATP (40-80 μM), 1 μM peptide, 240 minutes at 25° C.; geometric mean of minimum four determinations
TBK1, sequence (Q9UHD2 whole entry): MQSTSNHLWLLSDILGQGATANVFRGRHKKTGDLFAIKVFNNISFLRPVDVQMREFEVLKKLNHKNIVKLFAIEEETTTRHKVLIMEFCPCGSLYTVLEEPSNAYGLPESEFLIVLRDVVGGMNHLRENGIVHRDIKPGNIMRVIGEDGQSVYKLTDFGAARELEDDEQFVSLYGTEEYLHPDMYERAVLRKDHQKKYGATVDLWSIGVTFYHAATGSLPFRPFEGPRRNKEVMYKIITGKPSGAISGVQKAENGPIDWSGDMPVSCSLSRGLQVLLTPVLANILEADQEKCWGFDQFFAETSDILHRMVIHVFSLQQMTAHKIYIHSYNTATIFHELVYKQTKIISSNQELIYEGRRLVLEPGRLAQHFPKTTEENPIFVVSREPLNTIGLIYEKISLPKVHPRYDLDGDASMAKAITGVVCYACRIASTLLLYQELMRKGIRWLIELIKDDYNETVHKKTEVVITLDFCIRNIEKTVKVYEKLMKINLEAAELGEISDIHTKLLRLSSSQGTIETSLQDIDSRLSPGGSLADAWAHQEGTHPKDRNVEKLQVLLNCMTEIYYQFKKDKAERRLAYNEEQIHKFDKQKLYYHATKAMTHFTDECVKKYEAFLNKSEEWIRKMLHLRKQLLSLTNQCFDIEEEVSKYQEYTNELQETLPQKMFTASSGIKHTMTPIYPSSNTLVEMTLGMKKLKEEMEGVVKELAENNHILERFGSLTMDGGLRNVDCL
Experimental: Enzymatic activity of IKKε and TBK1 was measured using a homogeneous time resolved fluorescence resonance energy transfer (TR-FRET) assay that monitors enzyme dependent phosphorylation of a biotinylated serine/threonine peptide substrate. […] TBK1 and IKKε were expressed and purified as full length recombinant proteins. Detection reagents for the assay were purchased from Cisbio. […] After an assay reaction time of 240 minutes at 25° C., reactions were terminated with EDTA.
Amount of phosphorylated peptide was determined by the addition of 125 nM streptavidin XL665 and europium cryptate labeled anti-phospho monoclonal antibody and the resulting TR-FRET signal was recorded on an Envision plate reader (Ex: 340 nm; Em: 615/665 nm; 100 μs delay and 200 μs read window). […] All IC50 values represent geometric mean values of a minimum of four determinations.

IKKε = IKKε (Homo sapiens (Human), UniProt Q14164); assay: TR-FRET enzymatic assay, phosphorylation of biotinylated serine/threonine peptide substrate (IKKε); assay type: biochemical; details: full length recombinant IKKε at 0.3 nM, 2×Km ATP (40-80 μM), 1 μM peptide, 240 minutes at 25° C.; geometric mean of minimum four determinations
IKKε, sequence (Q14164 whole entry): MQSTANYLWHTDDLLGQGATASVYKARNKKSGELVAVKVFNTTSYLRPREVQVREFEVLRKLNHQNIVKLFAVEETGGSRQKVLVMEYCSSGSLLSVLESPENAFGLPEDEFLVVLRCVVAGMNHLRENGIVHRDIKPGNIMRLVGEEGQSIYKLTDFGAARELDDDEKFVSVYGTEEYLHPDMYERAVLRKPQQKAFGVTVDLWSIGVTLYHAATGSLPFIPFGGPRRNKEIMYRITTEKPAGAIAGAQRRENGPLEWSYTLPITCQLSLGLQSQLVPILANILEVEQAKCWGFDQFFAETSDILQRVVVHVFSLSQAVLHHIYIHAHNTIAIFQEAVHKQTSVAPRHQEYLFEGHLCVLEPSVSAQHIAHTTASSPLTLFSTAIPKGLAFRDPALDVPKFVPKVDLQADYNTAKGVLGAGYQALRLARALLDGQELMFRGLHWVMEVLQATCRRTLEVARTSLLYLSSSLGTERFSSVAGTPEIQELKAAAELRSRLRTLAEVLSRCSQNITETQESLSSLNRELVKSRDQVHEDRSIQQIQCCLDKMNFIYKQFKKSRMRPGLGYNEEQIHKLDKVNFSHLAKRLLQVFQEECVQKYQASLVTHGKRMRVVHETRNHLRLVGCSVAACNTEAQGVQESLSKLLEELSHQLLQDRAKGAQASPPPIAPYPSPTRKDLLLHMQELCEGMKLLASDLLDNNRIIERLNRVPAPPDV
Excerpt: Biological Assay for TBK1 and IKKε:

Compound	IC50 (TBK1)	IC50 (IKKε)
N#Cc1cc(-c2ncnc3[nH]c(-c4ccc(N5CCOCC5)c(F)c4)nc23)ccc1OC1CCN(C(=O)CO)CC1 [Example 241, 5-(8-(3-fluoro-4-morpholinophenyl)-9H-purin-6-yl)-2-((1-(2-hydroxyacetyl)piperidin-4-yl)oxy)benzonitrile]	2.64 nM	1.3 nM
5-(6-(4-(4-(2,2-difluoroethyl)piperazin-1-yl)phenyl)-7H-pyrrolo[2,3-d]pyrimidin-4-yl)-2-(piperidin-4-yloxy)benzonitrile [Example 265]	16.2 nM	58.7 nM
Cc1nc(-c2ccc(OC3CCOCC3)c(C#N)c2)c2nc(-c3ccc(N4CCOCC4)cc3)[nH]c2n1 [Example 214, 5-(2-methyl-8-(4-morpholinophenyl)-9H-purin-6-yl)-2-((tetrahydro-2H-pyran-4-yl)oxy)benzonitrile]	> 1000 nM	> 1000 nM
5-(6-(4-(4-(2,2-difluoroethyl)piperazin-1-yl)phenyl)-7H-pyrrolo[2,3-d]pyrimidin-4-yl)-2-((1-(2-hydroxyacetyl)piperidin-4-yl)oxy)benzonitrile [Example 264]	0.91 nM	–
5-(6-(1,4-dioxaspiro[4.5]dec-7-en-8-yl)-7H-pyrrolo[2,3-d]pyrimidin-4-yl)-2-((1-(2-hydroxyacetyl)piperidin-4-yl)oxy)benzonitrile [Example 175]	–	5.84 nM

From US10259811B2, “Tank-binding kinase inhibitor compounds” (Gilead Sciences, Inc., priority 2014, dated 2019)
